As a reminder, the Ki is the equilibrium dissociation constant of an inhibitor or competing ligand from its target.

Data on 15 molecules can be found in patent US6833372B2, “Non-peptide GnRH agents, Pharmaceutical compositions, and methods for their use” (Pfizer, Inc., priority 2002, dated 2004).

One assay addresses T1, human GnRH receptors (Homo sapiens, UniProt P30968).
T1 construct: expressed in transfected cells; host or cells: HEK 293 cells, stably transfected; membranes
T1 sequence (P30968 1-328): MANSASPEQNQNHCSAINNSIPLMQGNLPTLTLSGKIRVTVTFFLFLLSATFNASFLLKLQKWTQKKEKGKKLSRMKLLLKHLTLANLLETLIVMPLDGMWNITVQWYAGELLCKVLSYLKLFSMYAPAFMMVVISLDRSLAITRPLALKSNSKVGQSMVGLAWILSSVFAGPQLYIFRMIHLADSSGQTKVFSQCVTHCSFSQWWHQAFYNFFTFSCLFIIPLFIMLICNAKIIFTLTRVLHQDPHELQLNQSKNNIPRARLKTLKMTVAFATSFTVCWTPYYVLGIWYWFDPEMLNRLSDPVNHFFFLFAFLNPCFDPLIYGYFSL
Briefly: Radioligand binding: inhibition of 125I-GnRH-A binding to human GnRH receptor membranes. To be noted: HEK 293 cell membranes. Here is the method:
HEK 293 cells stably transfected with mouse or human GnRH receptors as described above were grown in Dulbecco's high-glucose, modified Eagle's medium (DMEM) supplemented with 0.2% G418, 10% fetal bovine serum (FBS) and 100 U/mL penicillin/streptomycin. GH3 cells stably transfected with the rat GnRH receptor (GGH3) were provided by Dr. William Chin (Harvard Medical School, Boston, Mass.). These cells have been extensively characterized previously (Kaiser et al., 1997). The cells were grown in low glucose DMEM containing: 100U/mL penicillin/streptomycin, 0.6% G418 and 10% heat-inactivated FBS.
(§1) HEK 293 cells containing mouse or human receptors, or rat pituitaries (Pel Freez Biologicals, Rogers, Ark.) were homogenized in buffer A containing: 50 mM Tris (pH 7.4), 0.32 M sucrose, 2 mM EGTA, 1 mM PMSF, 5 μg/ml aprotinen, 5 μg/ml Pepstatin A, and 1 μg/ml leupeptin. Homogenized cells were centrifuged at 4° C. at 20,000×g for 25 minutes, re-suspended in buffer A and re-centrifuged at 4° C. at 20,000×g for an additional 25 minutes. Total membrane protein was determined with a BCA kit (Pierce, Rockford, Ill.). Membranes were stored at −70° C. at a final membrane protein concentration of approximately 5 mg/ml.
(§2) The radioiodinated agonist analog of GnRH, [des-Gly^10,D-Ala^6]GnRH ethylamide (^125I-GnRH-A), was used as the radioligand. […] The reaction mixture was vortexed and incubated for 1 minute at room temperature. After one minute, the mixture was vortexed and allowed to incubate for an additional minute. 2 ml of 0.5 M acetic acid/1% BSA was added to the reaction tube and the mixture was added to a C18 Sep-Pak cartridge. The cartridge was washed with subsequent washes of 5 ml H2O and 5 ml 0.5 M acetic acid and then eluted with 5×1 ml of 60% CH3CN/40% 0.5 M acetic acid. The eluate was diluted with 3× volume of HPLC buffer A (0.1% TFA in H2O) and loaded onto a C18 column. The iodinated product was eluted over 20-25 min with a gradient of 25-100% CH3CN containing 0.1% TFA. The radioactive fractions (750 μl/fraction) were collected into clean polypropylene tubes containing 100 μl of 10% BSA. Fractions were assessed for biological activity by radioligand binding. Specific activity of the radioligand was approximately 2200 Ci/mmol.
(§3) Membranes were diluted to 0.01-0.5 mg/ml (depending upon the species of receptor) with assay buffer containing 50 mM HEPES (pH 7.4), 1 mM EDTA, 2.5 mM MgCl2, and 0.1% BSA. Membranes (diluted to utilize similar receptor numbers between assays) were incubated with approximately 0.04-0.06 nM ^125I-GnRH-A in the presence or absence of competing agents (0.1-10,000 nM) in a total volume of 200 μl in 96-well polypropylene plates for 1 hour at room temperature. Assays were stopped by rapid filtration onto 96-well GF/C filters soaked in 0.1% polyethylenimine (PEI) utilizing a Packard 96-well cell harvester. Filters were washed three times with ice-cold PBS (50 mM NaPO4, 0.9% NaCl, 2 mM MgCl2, and 0.02% NaN3, pH 7.4). 35 μl of scintillation cocktail was added to each filter well and filters were counted on a Packard Topcount. Control dose-response curves were generated to GnRH (0.1 nM-100 nM) in each competition binding experiment. Ki values were calculated from IC50 values according to Cheng et al., Biochemical Pharmacol. 22: 3099-3108, 1973. [formula]

A further assay deals with T2, rat GnRH receptor (Rattus norvegicus, UniProt P30969).
T2 construct: or rat pituitaries (Pel Freez Biologicals, Rogers, Ark.) were homogenized; tissue Pel Freez Biologicals; host or cells: rat pituitaries (membrane preparation)
T2 sequence (P30969 1-327): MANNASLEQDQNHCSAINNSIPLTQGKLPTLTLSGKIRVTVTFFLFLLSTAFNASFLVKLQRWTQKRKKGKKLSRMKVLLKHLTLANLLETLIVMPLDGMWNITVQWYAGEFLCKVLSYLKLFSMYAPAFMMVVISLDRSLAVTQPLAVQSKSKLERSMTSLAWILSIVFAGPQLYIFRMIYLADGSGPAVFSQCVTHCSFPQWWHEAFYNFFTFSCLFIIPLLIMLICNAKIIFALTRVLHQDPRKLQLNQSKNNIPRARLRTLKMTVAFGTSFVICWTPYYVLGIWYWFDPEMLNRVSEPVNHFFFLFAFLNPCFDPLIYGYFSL
Briefly: Radioligand binding: inhibition of 125I-GnRH-A binding to rat GnRH receptor (rat pituitary membranes). The conditions noted are these: read-out: Ki (nM), Inhibition Binding of 125I-GnRH-A to GnRH Receptors. As for the experimental part: as §1, §2, §3

As to `CCOCCN(CCOCC)c1nc(OC)c(NC(=O)c2ccc(Cc3cc4c(cc3C)C(C)(C)OC4(C)C)o2)c(OC)n1` [Example D49, N-{2-[Bis(2-ethoxyethyl)amino]-4,6-dimethoxypyrimidin-5-yl}-5-[(1,1,3,3,6-pentamethyl-1,3-dihydro-2-benzofuran-5-yl)methyl]-2-furamide], the Ki was determined as 36 nM on human GnRH receptors and 45 nM at rat GnRH receptor.
Regarding `COc1nc(N(CC(C)O)CC(C)O)nc(OC)c1NC(=O)c1ccc(Cc2cc3c(cc2C)C(C)(C)OC3(C)C)o1` (stereo not drawn) [Example D53, N-{2-[Bis(2-hydroxypropyl)amino]-4,6-dimethoxypyrimidin-5-yl)-5-[(1,1,3,3,6-pentamethyl-1,3-dihydro-2-benzofuran-5-yl)methyl]-2-furamide], the Ki on human GnRH receptors was 4.8 nM; on rat GnRH receptor, 2.6 nM.
Regarding `COc1nc(NCc2c(F)cccc2F)nc(OC)c1NC(=O)c1ccc(Cc2cc3c(cc2C)C(C)(C)OC3(C)C)o1` [Example D73, N-{2-[(2,6-difluorobenzyl)amino]-4,6-dimethoxypyrimidin-5-yl}-5-[(1,1,3,3,6-pentamethyl-1,3-dihydro-2-benzofuran-5-yl)methyl]-2-furamide], the Ki at human GnRH receptors was 4 nM; on rat GnRH receptor, 2.6 nM.
As for `COc1nc(NCC2(O)CCN(C)CC2)nc(OC)c1NC(=O)c1ccc(Cc2cc3c(cc2C)C(C)(C)OC3(C)C)o1` [Example D56, N-(2-{[(4-Hydroxy-1-methylpiperidin-4-yl)methyl]amino}-4,6-dimethoxypyrimidin-5-yl)-5-[(1,1,3,3,6-pentamethyl-1,3-dihydro-2-benzofuran-5-yl)methyl]-2-furamide Acetate], the Ki at human GnRH receptors came out at 30 nM; at rat GnRH receptor, 14 nM.
Regarding `COc1nc(N[C@@H](CO)CSCc2ccccc2)nc(OC)c1NC(=O)c1ccc(Cc2cc3c(cc2C)C(C)(C)OC3(C)C)o1` [Example D50, N-(2-{[(1S)-2-(Benzylthio)-1-(hydroxymethyl)ethyl]amino}-4,6-dimethoxypyrimidin-5-yl)-5-[(1,1,3,3,6-pentamethyl-1,3-dihydro-2-benzofuran-5-yl)methyl]-2-furamide], the inhibitory constant (Ki) on human GnRH receptors stood at 24 nM; on rat GnRH receptor, 19 nM.
As for `COc1nc(N2CCN(CCN)CC2)nc(OC)c1NC(=O)c1ccc(Cc2cc3c(cc2C)C(C)(C)OC3(C)C)o1` [Example D15, N-{2-[4-(2-Aminoethyl)piperazin-1-yl]-4,6-dimethoxypyrimidin-5-yl}-5-[(1,1,3,3,6-pentamethyl-1,3-dihydro-2-benzofuran-5-yl)methyl]-2-furamide], the Ki at human GnRH receptors was determined as 3.5 nM; at rat GnRH receptor, 2.4 nM.
On the same counts, the results for `COc1nc(N(C)Cc2cccnc2)nc(OC)c1NC(=O)c1ccc(Cc2cc3c(cc2C)C(C)(C)OC3(C)C)o1` [Example D38, N-{4,6-Dimethoxy-2-[methyl(pyridin-3-ylmethyl)amino]pyrimidin-5-yl}-5-[(1,1,3,3,6-pentamethyl-1,3-dihydro-2-benzofuran-5-yl)methyl]-2-furamide] are 22 nM and 15 nM.
For `COc1nc(NCCCN2CCOCC2)nc(OC)c1NC(=O)c1ccc(Cc2c(C)cc3c(c2C)C(C)(C)CCO3)o1` [Example I1, N-{4,6-Dimethoxy-2-[(3-morpholin-4-ylpropyl)amino]pyrimidin-5-yl}-5-[(4,4,5,7-tetramethyl-3,4-dihydro-2H-chromen-6-yl)methyl]-2-furamide], the Ki on human GnRH receptors turned out to be 27 nM; at rat GnRH receptor it was 26 nM.
With `COc1nc(NCCCN2CCN(C)CC2)nc(OC)c1NC(=O)c1ccc(Cc2c(C)cc3c(c2C)C(C)(C)CCO3)o1` [Example I2, N-(4,6-Dimethoxy-2-{[3-(4-methylpiperazin-1-yl)propyl]amino}pyrimidin-5-yl)-5-[(4,4,5,7-tetramethyl-3,4-dihydro-2H-chromen-6-yl)methyl]-2-furamide], the inhibition constant Ki on human GnRH receptors was determined as 24 nM; at rat GnRH receptor, 16 nM.
For the molecule `COc1nc(NCCSCCO)nc(OC)c1NC(=O)c1ccc(Cc2cc3c(cc2C)C(C)(C)OC3(C)C)o1` [Example D42, N-[2-({2-[(2-Hydroxyethyl)thio]ethyl}amino)-4,6-dimethoxypyrimidin-5-yl]-5-[(1,1,3,3,6-pentamethyl-1,3-dihydro-2-benzofuran-5-yl)methyl]-2-furamide], the Ki turned out to be 1.6 nM at human GnRH receptors and 0.64 nM at rat GnRH receptor.
`COCCOc1nc(OC)c(NC(=O)c2ccc(Cc3cc4c(cc3C)C(C)(C)OC4(C)C)o2)c(OC)n1` [Example A4, 5-(1,1,3,3,6-Pentamethyl-1,3-dihydro-isobenzofuran-5-ylmethyl)-furan-2-carboxylic acid [4,6-dimethoxy-2-(2-methoxy-ethoxy)-pyrimidin-5-yl]-amide]: the Ki on human GnRH receptors turned out to be 18 nM; at rat GnRH receptor, 9.5 nM.
As to `COc1nc(NCCN(C)CCCCCO)nc(OC)c1NC(=O)c1ccc(Cc2cc3c(cc2C)C(C)(C)OC3(C)C)o1` [Example D58, N-[2-({2-[(5-Hydroxypentyl)(methyl)amino]ethyl}amino)-4,6-dimethoxypyrimidin-5-yl]-5-[(1,1,3,3,6-pentamethyl-1,3-dihydro-2-benzofuran-5-yl)methyl]-2-furamide], the values for the Ki on human GnRH receptors and on rat GnRH receptor were 4.8 nM and 3.1 nM, respectively.
The corresponding values for `COc1nc(N2CCc3nc(N(C)C)ncc3C2)nc(OC)c1NC(=O)c1ccc(Cc2cc3c(cc2C)C(C)(C)OC3(C)C)o1` [Example D59, N-{2-[2-(Dimethylamino)-7,8-dihydropyrido[4,3-d]pyrimidin-6(5H)-yl]-4,6-dimethoxypyrimidin-5-yl}-5-[(1,1,3,3,6-pentamethyl-1,3-dihydro-2-benzofuran-5-yl)methyl]-2-furamide] are 42 nM and 14 nM.
Take `COc1nc(NCCCn2ccnc2)nc(OC)c1NC(=O)c1ccc(Cc2cc3c(cc2C)C(C)(C)OC3(C)C)o1` [Example D19, N-(2-{[3-(1H-Imidazol-1-yl)propyl]amino}-4,6-dimethoxypyrimidin-5-yl}-5-[(1,1,3,3,6-pentamethyl-1,3-dihydro-2-benzofuran-5-yl)methyl]-2-furamide]: the Ki on human GnRH receptors amounted to 8.7 nM; on rat GnRH receptor, 1.9 nM.
As to `COc1nc(NCCCN(C)C)nc(OC)c1NC(=O)c1ccc(Cc2c(C)cc(C)c3c2OCC3(C)C)o1` [Example H4, N-(2-{[3-(Dimethylamino)propyl]amino}-4,6-dimethoxypyrimidin-5-yl)-5-[(3,3,4,6-tetramethyl-2,3-dihydro-1-benzofuran-7-yl)methyl]-2-furamide], the Ki at human GnRH receptors is 13 nM; on rat GnRH receptor, 16 nM.
